Values of other authors, collected in patent US20220401441A1, “PHARMACEUTICAL COMPOSITION COMPRISING SELEXIPAG” (ACTELION PHARMACEUTICALS LTD, priority 2019, published 2022).

Test system: patients with pulmonary arterial hypertension
Conditions: selexipag versus placebo

Which “risk of the primary composite end point of death or a complication related to pulmonary arterial hypertension” value does the source give for `CC(C)N(CCCCOCC(=O)NS(C)(=O)=O)c1cnc(-c2ccccc2)c(-c2ccccc2)n1` [selexipag, 2-{4-[N-(5,6-diphenylpyrazin-2-yl)-N-isopropylamino]butyloxy}-N-(methylsulfonyl)acetamide] here?
The value was “significantly lower”.
